In general, IC50 refers to the concentration that inhibits the measured activity by half. High values mean weaker potency in that assay, low ones greater potency in that assay.

Molecules are shown by their SMILES.

This assay addresses T1, Thymidine kinase (Human herpesvirus 1 (strain SC16) (HHV-1) (Human herpes simplex virus1), UniProt P06479).
T1 sequence (P06479 whole entry): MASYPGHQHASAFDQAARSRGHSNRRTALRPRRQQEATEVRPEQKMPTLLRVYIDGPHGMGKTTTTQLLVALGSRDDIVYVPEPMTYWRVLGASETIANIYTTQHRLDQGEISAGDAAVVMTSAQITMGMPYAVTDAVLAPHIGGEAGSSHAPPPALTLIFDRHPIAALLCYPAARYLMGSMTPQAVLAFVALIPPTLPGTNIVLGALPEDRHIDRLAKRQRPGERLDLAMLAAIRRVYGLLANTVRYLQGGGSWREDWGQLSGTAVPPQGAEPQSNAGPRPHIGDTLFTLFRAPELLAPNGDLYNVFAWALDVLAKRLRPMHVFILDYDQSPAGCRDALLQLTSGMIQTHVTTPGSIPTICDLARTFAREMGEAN
Kind of assay: Binding affinity towards HSV-1 thymidine kinase.
`O=c1[nH]c(=O)n([C@H]2C[C@H](O)[C@@H](CO)O2)cc1-c1cscc1Br` returned an IC50 of 143 µM. Then `O=c1[nH]c(=O)n([C@H]2C[C@H](O)[C@@H](CO)O2)cc1-c1ccco1`, with 2.9 µM; and `O=c1[nH]c(=O)n([C@H]2C[C@H](O)[C@@H](CO)O2)cc1-c1ccccc1`, with 102 µM. In turn, `O=c1[nH]c(=O)n([C@H]2C[C@H](O)[C@@H](CO)O2)cc1-c1ccsc1` returned an IC50 of 4 µM. Then `Cc1ccc(-c2cn([C@H]3C[C@H](O)[C@@H](CO)O3)c(=O)[nH]c2=O)s1`, with 2.3 µM; and `O=c1[nH]c(=O)n([C@H]2C[C@H](O)[C@@H](CO)O2)cc1-c1ccns1`, with 3.1 µM; and `O=c1[nH]c(=O)n([C@H]2C[C@H](O)[C@@H](CO)O2)cc1-c1ccc(Cl)o1`, with 28 µM. Then `O=c1[nH]c(=O)n([C@H]2C[C@H](O)[C@@H](CO)O2)cc1-c1sccc1Br`, with 61 µM. Under `O=c1[nH]c(=O)n([C@H]2C[C@H](O)[C@@H](CO)O2)cc1-c1ccoc1` stands 1.5 µM; under `O=c1[nH]c(=O)n([C@H]2C[C@H](O)[C@@H](CO)O2)cc1-c1sc(Br)cc1Br`, 62 µM.

On to `O=c1[nH]c(=O)n([C@H]2C[C@H](O)[C@@H](CO)O2)cc1-c1ccc(Br)s1`, for which the IC50 was found to be 3.5 µM. Compound `O=c1[nH]c(=O)n([C@H]2C[C@H](O)[C@@H](CO)O2)cc1-c1cc(Br)no1` showed an IC50 of 34 µM. In turn, `O=c1[nH]c(=O)n([C@H]2C[C@H](O)[C@@H](CO)O2)cc1-c1cccs1` had an IC50 of 2.4 µM.

For the compound `O=c1[nH]c(=O)n([C@H]2C[C@H](O)[C@@H](CO)O2)cc1-c1ccno1`, the half-maximal inhibitory concentration (IC50) was 36 µM. Under `O=c1[nH]c(=O)n([C@H]2C[C@H](O)[C@@H](CO)O2)cc1-c1ccc(Br)o1` stands 51 µM. In turn, `O=c1[nH]c(=O)n([C@H]2C[C@H](O)[C@@H](CO)O2)cc1-c1ccc(Cl)s1` came in with an IC50 of 2.3 µM.
